According to ChEMBL document CHEMBL1124578, “A potent, tissue-selective, synthetic inhibitor of HMG-CoA reductase” (J Med Chem, 1989):

Tests used:
[1] = Ratio of the mean IC50 for sterol-synthesis inhibition of adrenal relative to hepatocytes in rat; type: functional, Hepatocyte
[2] = Ratio of the mean IC50 for sterol-synthesis inhibition of hepatocytes relative to hepatocytes in rat; type: functional, Hepatocyte
[3] = Ratio of the mean IC50 for sterol-synthesis inhibition of spleen relative to hepatocytes in rat; type: functional, Hepatocyte
[4] = Ratio of the mean IC50 for sterol-synthesis inhibition of testes relative to hepatocytes in rat; type: functional, Hepatocyte
[5] = test system: HMG-CoA reductase (Rattus norvegicus); assay: In vitro inhibition of rat liver microsomal HMG-CoA reductase activity; No Activity

CC[C@H](C)C(=O)O[C@H]1C[C@@H](C)C=C2C=C[C@H](C)[C@H](CC[C@@H]3C[C@@H](O)CC(=O)O3)[C@H]21 [LOVASTATIN]
Ratio [1]: 1 | Ratio [2]: 1 | Ratio [3]: 1.2 | Ratio [4]: 1.3

Cn1nnnc1C(/C=C/[C@@H]1C[C@@H](O)CC(=O)O1)=C(c1ccc(F)cc1)c1ccc(F)cc1
Ratio [1]: 76 | Ratio [2]: 1 | Ratio [3]: 149 | Ratio [4]: 86

Cn1nnnc1C(/C=C/[C@H]1C[C@H](O)CC(=O)O1)=C(c1ccc(F)cc1)c1ccc(F)cc1
IC50 [5]: Not Active
